# Values of other authors as cited in patent publication US5843942A, “Aromatic amino ethers as pain relieving agents” (Zeneca Limited, priority 1994, dated 1998).
smiles,measurement,setting,value
CC(=O)NNC(=O)N1Cc2ccccc2Oc2ccc(Cl)cc21 [SC-19220],block of the effect of PGE2,cat trachea,not on other tissues such as the cat trachea
same,block of the effect of PGE2,dog fundus,blocks the effect of PGE2
same,block of the effect of PGE2,guinea pig ileum,blocks the effect of PGE2
